Patent US20250082763A1, “COMBINATION DRUG FOR TREATING TRIPLE-NEGATIVE BREAST CANCER” (HINOVA PHARMACEUTICALS INC., priority 2022, published 2025)

Tests used:
Format in all cases: cell-based
[1] = system: MDA-MB-453 cells; test: Inhibition of proliferation of MDA-MB-453 cells (CCK-8 or CTG, 7-10 days); settings: Homo sapiens, co-incubation 7-10 days, CCK-8 or CTG, read-out: IC50 values against MDA-MB-453 cells
Description: Triple negative breast cancer MDA-MB-453 cells in logarithmic growth stage were inoculated into a 96-well plate at a concentration of 4×10^3 cells/well, and then incubated in an incubator at 37° C., 5% CO2, and saturated humidity for 24 h or 48 h. To the negative control well, was added RPMI 1640 cell medium containing 10% fetal bovine serum in the same volume as the drug. After cultured for 24 h or 48 h, to the 96-well plate, were added AR PROTACs compounds 162, 177, 230, 259, 279, 281, 282, 325, 357, 400, ARV-110, ARV-766 and AR inhibitor HC-1119, respectively. The concentrations of compounds 177, 230, 259, 279, 281, 282, 325, 357, 400, ARV-110, and ARV-766 are 0 μM, 0.002 μM, 0.005 μM, 0.014 μM, 0.041 μM, 0.123 μM, 0.370 μM, 1.111 μM, 3.333 μM or 10 μM; while the concentrations of HC-1119 are 0 μM, 1.23 μM, 3.70 μM, 11.11 μM, 33.33 μM or 100 μM.
(§1) After addition of the drugs and co-incubation for 7-10 days, 10 μL of CCK-8 was added to each well, and then the plate was further cultured for 2 h. The absorbance value (OD) of each well was measured using a microplate reader at a wavelength of 450 nm. The survival rate was calculated using Prism software, the relative survival rate=(OD value of drug well/OD value of control well)×100%. Alternatively, 100 μL of medium was removed from each well, and then 50 μL of CTG was added. The plate was shaken in the dark for 2 min, allowed to stand for 10 min, and then measured using a microplate reader in Luminescence mode. Prism software was used to calculate the survival rate, the relative survival rate=(the RLU value of drug well/the RLU value of control well)×100%.

[2] = system: MFM-223; test: Antiproliferation, CellTiter-Glo, 5 days, MFM-223; settings: Homo sapiens, 120 h, MFM-223, AR+ TNBC
Description: (§2) For MDA-MB-453, MFM-223, SUM159PT, MDA-MB-468, and HCC1937, 4,000, 3,000, 1,000, 3,000, and 3,000 cells were plated per well in 96-well microplates (Corning Inc), respectively. Cells were treated with serial dilutions of tested compounds with the maximum working concentration of 10 μM. Cell survival was measured 5 days later using a CellTiter-Glo luminescent cell viability assay kit (Promega Corporation). Luminescence was recorded by FLUOstar Omega microplate reader (BMG Labtech). Half maximal inhibitory concentration (IC50) was determined with GraphPad Prism using baseline correction (by normalizing to dimethyl sulfoxide (DMSO) control)

[3] = system: MDA-MB-468; test: Antiproliferation, CellTiter-Glo, 5 days, MDA-MB-468; settings: Homo sapiens, 120 h, MDA-MB-468, AR− TNBC
Description: as §2

[4] = system: MDA-MB-453 cells; test: Combination with PI3K inhibitor Alpelisib, proliferation of MDA-MB-453 cells, Combination Index; settings: molar ratio to Alpelisib 1:27-9:1, 7 days
Description: (§3) Triple negative breast cancer MDA-MB-453 cells in logarithmic growth stage were inoculated into a 96-well plate at a concentration of 4×10^3 cells/well, and then incubated in an incubator at 37° C., 5% CO2, and saturated humidity for 24 h. To the negative control wells, were added RPMI 1640 cell culture medium containing 10% fetal bovine serum in the same volume as the drug. After cultured for 24 h, to the 96-well plate, were sequentially added AR PROTACs compounds 279, 281, 282, ARV-110, ARV-766 and PI3K inhibitor Alpelisib, respectively.
as §1, with “7” for “7-10”

[5] = system: MDA-MB-453 cells; test: Combination with PI3K inhibitor Duvelisib, proliferation of MDA-MB-453 cells, Combination Index; settings: molar ratio to Duvelisib 1:30-1:1.111, 7-10 days
Description: as §3, with “ARV-110” for “ARV-110, ARV-766”, “Duvelisib,” for “Alpelisib,”
as §1, with “adding” for “addition of”, “co-incubating” for “co-incubation”

[6] = system: MDA-MB-453 cells; test: Combination with PI3K inhibitor Idelalisib, proliferation of MDA-MB-453 cells, Combination Index; settings: molar ratio to Idelalisib 1:270-1:3.333, 7-10 days
Description: as §3, with “Idelalisib,” for “Alpelisib,”
as §1, with “adding” for “addition of”, “co-incubating” for “co-incubation”

N#Cc1ccc(O[C@H]2CC[C@H](NC(=O)c3ccc(N4CCC(CN5CCN(c6cc7c(cc6F)C(=O)N(C6CCC(=O)NC6=O)C7=O)CC5)CC4)nn3)CC2)cc1Cl (stereo partly drawn) [ARV-110, reference compound]
IC50 [1]: ≤ 2 µM | IC50 [2]: 4 µM | IC50 [3]: > 10 µM | effect of the combination with Alpelisib on inhibiting proliferation (CI<1 = synergistic) [4]: synergistic effect | effect of the combination with Duvelisib on inhibiting proliferation (CI<1 = synergistic) [5]: synergistic effect | effect of the combination with Idelalisib on inhibiting proliferation (CI<1 = synergistic) [6]: synergistic effect

N#Cc1ccc(O[C@H]2CC[C@H](NC(=O)c3cnc(N4CCC(CN5CCC6(CC5)CN(c5ccc7c(c5)C(=O)N(C5CCC(=O)NC5=O)C7=O)C6)CC4)nn3)CC2)cc1Cl (stereo partly drawn) [Compound 279]
IC50 [1]: ≤ 2 µM | IC50 [2]: 0.46 µM | IC50 [3]: > 10 µM | effect of the combination with Alpelisib on inhibiting proliferation (CI<1 = synergistic) [4]: synergistic effect | effect of the combination with Duvelisib on inhibiting proliferation (CI<1 = synergistic) [5]: synergistic effect | effect of the combination with Idelalisib on inhibiting proliferation (CI<1 = synergistic) [6]: synergistic effect
